Data reported in patent US20220008298A1, “OLEOGELS IN UV ABSORBER COMPOSITIONS” (BASF SE, priority 2011, published 2022).

What was measured:
[1] = interfacial tension of the oil to water; assay type: physicochemical
Excerpt: (§1) The smaller the interfacial tension of the oil towards water, the more polar it is. This is in line with the values of Log Poctanol/water.

[2] = Log P octanol/water of the oil; assay type: physicochemical
Excerpt: as §1

Interf. tension to water, γ [1] [mN/m] | Log Poctanol/water [2] | Structure (SMILES)
14.3 | 3.9 | CCCCOC(=O)CCCCC(=O)OCCCC [Dibutyl Adipate]
29.1 | 6.8 | CCCCC(CC)COC(=O)OCC(CC)CCCC (stereo not shown) [Diethylhexyl Carbonate]
